The values below come from patent US9676761B2, “Difluoroethyl-oxazole substituted bridged spiro[2.4]heptane derivatives as ALX receptor agonists” (ACTELION PHARMACEUTICALS LTD, priority 2013, dated 2017).

Data set [1] deals with T1, human ALX receptor (Homo sapiens, UniProt P25090).
T1 construct: expressed in transfected cells; host or cells: HEK293 (HEK293-hALXR-Gα16)
T1 sequence (P25090 1-351): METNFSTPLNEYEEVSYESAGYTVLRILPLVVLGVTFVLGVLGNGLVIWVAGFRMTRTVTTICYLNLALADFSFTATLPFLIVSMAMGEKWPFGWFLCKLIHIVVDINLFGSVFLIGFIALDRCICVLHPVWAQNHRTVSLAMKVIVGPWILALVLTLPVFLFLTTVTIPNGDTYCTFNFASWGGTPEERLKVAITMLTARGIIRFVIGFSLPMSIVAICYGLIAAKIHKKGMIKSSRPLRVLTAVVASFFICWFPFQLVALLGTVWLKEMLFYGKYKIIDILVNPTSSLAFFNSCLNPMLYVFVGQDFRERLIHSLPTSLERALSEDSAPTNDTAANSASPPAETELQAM
The experiment in a line: FLIPR assay (ALX receptor), intracellular calcium measurements in HEK293-hALXR-Gα16 cells. It counts as cell-based. The settings on record: median of n replications, normalized to WKYMVm 10 nM, read-out: EC50 (agonistic activity with respect to the ALX receptor). How it is done: FLIPR Assay (ALX Receptor)
(§1) Intracellular Calcium Measurements:
(§2) Cells expressing recombinant human ALX receptor and the G-protein Gα16 (HEK293-hALXR-Gα16) were grown to 80% confluency in Growing Medium (GM). Cells were detached from culture dishes with a cell dissociation buffer (Invitrogen, 13151-014), and collected by centrifugation at 1,000 rpm at rt for 5 min in Assay Buffer (AB) (equal parts of Hank's BSS (Gibco, 14065-049) and DMEM without Phenol Red (Gibco, 11880-028)). After 60 min incubation at 37° C. under 5% CO2 in AB supplemented with 1 μM Fluo-4 (AM) (Invitrogen, F14202) and 20 mM HEPES (Gibco, 15630-056), the cells were washed and resuspended in AB. They were then seeded onto 384-well FLIPR assay plates (Greiner, 781091) at 50,000 cells in 70 μl per well and sedimented by centrifugation at 1,000 rpm for 1 min. Stock solutions of test compounds were made up at a concentration of 10 mM in DMSO, and serially diluted in AB to concentrations required for activation dose response curves. WKYMVm (Phoenix Peptides) was used as a reference agonist. […] Changes in fluorescence were monitored before and after the addition of test compounds at lex=488 nm and lem=540 nm. […]

Data set [2] deals with T2, human FPR1 receptor (Homo sapiens, UniProt P21462).
T2 construct: expressed in transfected cells; host or cells: HEK293 (HEK293-hFPR1-Gα16)
T2 sequence (P21462 1-350): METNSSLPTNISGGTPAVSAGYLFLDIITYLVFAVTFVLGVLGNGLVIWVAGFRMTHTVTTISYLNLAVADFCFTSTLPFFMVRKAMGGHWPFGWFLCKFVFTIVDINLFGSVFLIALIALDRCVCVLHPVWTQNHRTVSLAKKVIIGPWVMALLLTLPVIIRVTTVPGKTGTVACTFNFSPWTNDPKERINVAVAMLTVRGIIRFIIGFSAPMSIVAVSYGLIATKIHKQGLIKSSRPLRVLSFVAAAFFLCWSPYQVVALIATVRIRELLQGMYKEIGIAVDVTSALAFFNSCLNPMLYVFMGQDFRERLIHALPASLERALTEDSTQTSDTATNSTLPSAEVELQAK
The experiment in a line: FLIPR assay (FPR1 receptor), intracellular calcium measurements in HEK293-hFPR1-Gα16 cells. Format: cell-based. The settings on record: median of n replications, normalized to WKYMVm 10 nM, read-out: EC50 (agonistic activity with respect to the FPR1 receptor). How it is done:
FLIPR Assay (FPR1 Receptor)
as §1
as §2, with “FPR1” for “ALX”, “(HEK293-hFPR1-Gα16)” for “(HEK293-hALXR-Gα16)”

The nature of data set [3]: Plasma stability assay (stability in serum), human. Particulars: pH 7.4, 37° C., 1 μM compound; for remaining concentration at Tlast: Tlast 6 h. It counts as in vitro ADME. How it is done:
(§3) Rat or human serum adjusted at pH 7.4 with lactic acid or ammonium hydroxide, were equilibrated at 37° C. under orbital shaking in an incubator containing 5% CO2. The reaction was initiated by the addition of 1 μM of compounds (1 μl of 1 mM stock solution in DMSO in 999 μl of plasma). At 0.01 h, 0.25 h, 0.5 h, 1 h, 2 h, 4 h and 6 h aliquots (30 μl) were transferred in a 96 well plate containing 90 μl MeOH placed on ice to stop the reaction. After vortexing for 20 min at 1400 rpm on an Eppendorf thermomixer, the plates were centrifuged at 3220 g for 20 min at 4° C. and the supernatants were analyzed with LC-MS/MS. Calibration samples in serum containing 0.1% of dichlorvos (2,2-dichlorovinyl-dimethyl-phosphate) were prepared and analysed in parallel to the incubation samples to allow the quantification. Half lives (T1/2) in hours were then calculated. In addition the remaining concentration of the respective compound after time Tlast relative to the concentration at the beginning has been determined (table 3).

Data set [4] in a line: Plasma stability assay (stability in serum), rat. It counts as in vitro ADME. Particulars: pH 7.4, 37° C., 1 μM compound; for remaining concentration at Tlast: Tlast 6 h. How it is done: as §3
Data set [5] is described as follows: Plasma protein binding assay (Rapid Equilibrium Dialysis), human. Format: in vitro ADME. The settings on record: 1 μM, dialysis 4 h at 37° C., pH 7.4. How it is done: Plasma Protein Binding Assay
Compounds were added to human plasma adjusted at pH 7.4 with lactic acid or ammonium hydroxide (final concentration 1 μM) and dialyzed with RED (Rapid Equilibrium Dialysis) devices against Phosphate Buffered Saline (0.1M sodium Phosphate and 0.15 M sodium chloride) 0.1 M pH 7.4 for 4 h at 37° C. in an incubator containing 5% CO2. Following dialysis, an aliquot of plasma and buffer were diluted with an equal volume of the opposite matrix to nullify the matrix effect and a calibration was prepared in the mixed matrix. Aliquots of samples and calibrations (30 μl) were transferred in a 96 well plate containing 90 μl MeOH to precipitate the proteins. After vortexing for 20 min at 1400 rpm on an Eppendorf thermomixer, the plates were centrifuged at 3220 g for 20 min at 4° C. and the supernatants were analyzed with LC-MS/MS. Concentrations of analyte were used for the calculation of the fraction bound to plasma. Propranolol [(±)-1-isopropylamino-3-(1-naphthyloxy)-2-propanol], a reference compound, was run in parallel.
Background: Equilibrium dialysis compares concentrations on both sides of a semipermeable membrane.

Data set [6] can be described thus: Plasma protein binding assay (Rapid Equilibrium Dialysis), rat. The settings on record: 1 μM, dialysis 4 h at 37° C., pH 7.4. It counts as in vitro ADME.

A value given as a limit tells only on which side of the number the result lay.

What is called EC50 is the concentration needed to bring the measured effect to its halfway point. As for “(1S,2R,3R,4R)—N^2—((4-(1,1-Difluoroethyl)oxazol-2-yl)methyl)-N^3-(trans-3-fluoropiperidin-4-yl)spiro[bicyclo[2.2.1]heptane-7,1′-cyclopropane]-2,3-dicarboxamide [Example 1]”, the EC50 in data set [1] was 6.6 nM; in data set [2], more than 6000 nM. For the same substance, the “remaining concentration at Tlast” value in data set [3] is recorded as 97%; in data set [4], more than 100%. For the same substance, the T1/2 in data set [3] and in data set [4] was more than 6 h throughout. Moreover, the results for the Plasma protein binding in data set [5] and in data set [6] were 54.8% and 50.7%, respectively.

Take “(1S,2R,3R,4R)—N^2—((4-(1,1-Difluoroethyl)oxazol-2-yl)methyl)-N^3-(trans-3-fluoropiperidin-4-yl)spiro[bicyclo[2.2.1]heptane-7,1′-cyclopropane]-2,3-dicarboxamide [Example 2]”: the EC50 in data set [1] is 3.6 nM; in data set [2] it was more than 7000 nM. In addition, the “remaining concentration at Tlast” value in data set [3] and in data set [4] was more than 100% each time. Further, the T1/2 in data set [3] and in data set [4] was more than 6 h in each case. Further, the Plasma protein binding in data set [5] is reported as 63.8%; in data set [6], 47.7%.
